Source: ChEMBL document CHEMBL5321224, “Antimicrobial peptides: Structure, mechanism, and modification” (2023)

Assays:
Assay type in all cases: functional
[1] = test system: Escherichia coli; test: Antimicrobial activity against Escherichia coli ATCC 33694 measured after 18 hrs
[2] = test system: Pseudomonas aeruginosa; test: Antimicrobial activity against Pseudomonas aeruginosa measured after 18 hrs
[3] = test system: Pseudomonas aeruginosa; test: Antimicrobial activity against Pseudomonas aeruginosa KCTC 1637 measured after 18 hrs

H-KWKLFKKIGIGKFLHSAKKF-NH2
LD [1]: 6.25 µM
LD [2]: 1.56 µM

H-KWKKLLKKPLLKKLLKKL-NH2
LD [3]: 0.78 µM
